# ± gives the standard deviation of the averaged measurements.
# Tests used:
# Experiment in all cases: level (log10 ratio to DMSO vehicle control); higher = higher biomarker level / cell amount than vehicle control
# [1] = compound: O=C(O)C(F)(F)OC(F)(F)C(F)(F)OC(F)(F)C(F)(F)OC(F)(F)C(F)(F)C(F)(F)C(F)(F)F [Perfluoro-3,6,9-trioxatridecanoic acid] (in DMSO); conditions: 6700 nM
# Experimental: (§1)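 BioMAP Diversity Plus panel of 12 human primary cell co-culture systems (3C, 4H, LPS, SAg, BT, BF4T, BE3C, CASM3C, HDF3CGF, KF3CT, MyoF, Mphg). Compounds were added 1 h before stimulation and left for 24 h (MyoF 48 h; BT 72 h for soluble read-outs or 6 d for IgG). Biomarkers were read by ELISA, cytotoxicity by SRB, PBMC viability and proliferation by Alamar Blue. Each well value was divided by the mean of 8 DMSO control wells on the same plate and log10 transformed; duplicate blinded samples were tested at 4 concentrations.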
# [2] = compound: O=C(O)C(F)(OC(F)(F)C(F)(F)C(F)(F)F)C(F)(F)F [Ammonium perfluoro-2-methyl-3-oxahexanoate] (in Water)
# Experimental: as §1
# [3] = compound: O=C(O)C(F)(F)C(F)(F)C(F)(F)C(F)(F)C(F)(F)C(F)(F)C(F)(F)C(F)(F)F [Perfluorononanoic acid] (in DMSO)
# Experimental: as §1
# [4] = compound: O=C(O)C(F)(OC(F)(F)C(F)(OC(F)(F)C(F)(OC(F)(F)C(F)(F)C(F)(F)F)C(F)(F)F)C(F)(F)F)C(F)(F)F [Perfluoro-(2,5,8-trimethyl-3,6,9-trioxadodecanoic)acid] (in DMSO)
# Experimental: as §1
# [5] = compound: C[C@@H]1C[C@H]2[C@@H]3CCC4=CC(=O)C=C[C@]4(C)[C@@]3(F)[C@@H](O)C[C@]2(C)[C@@]1(O)C(=O)COP(=O)(O)O [Dexamethasone sodium phosphate] (in DMSO)
# Experimental: as §1
# [6] = compound: OCCC(F)(F)C(F)(F)C(F)(F)C(F)(F)F [4:2 Fluorotelomer alcohol] (in DMSO)
# Experimental: as §1
# [7] = compound: OCC(F)(F)C(F)(F)C(F)(F)C(F)(F)C(F)(F)C(F)(F)CO [1H,1H,8H,8H-Perfluorooctane-1,8-diol] (in DMSO)
# Experimental: as §1
# [8] = compound: O=C(O)C(F)(F)C(F)(F)C(F)(F)C(F)(F)C(F)(F)C(F)(F)C(F)(F)C(F)(F)C(F)(F)C(F)(F)F [Perfluoroundecanoic acid] (in DMSO); conditions: 6700 nM
# Experimental: as §1
Test System,level (log10) [1],level (log10) ([2]; 6700 nM),level (log10) ([2]; 20000 nM),level (log10) ([2]; 60000 nM),level (log10) ([3]; 6700 nM),level (log10) ([3]; 20000 nM),level (log10) ([4]; 1100 nM),level (log10) ([4]; 3300 nM),level (log10) ([4]; 10000 nM),level (log10) ([5]; 1500 nM),level (log10) ([5]; 4400 nM),level (log10) ([5]; 13000 nM),level (log10) ([5]; 40000 nM),level (log10) ([6]; 6700 nM),level (log10) ([6]; 20000 nM),level (log10) ([6]; 60000 nM),level (log10) ([7]; 6700 nM),level (log10) ([7]; 20000 nM),level (log10) ([7]; 60000 nM),level (log10) [8]
BT:Secreted IgG,-0.0225 ± 0.0092,-0.12 ± 0.07,-0.113 ± 0.059,-0.156,0.0275 ± 0.021,0.0335 ± 0.026,0.0215 ± 0.049,0.0315 ± 0.013,0.0065 ± 0.021,0.024 ± 0.0085,0.002,0.034 ± 0.011,0.0025 ± 0.036,0.023 ± 0.028,0.0205 ± 0.018,0.013 ± 0.0057,-0.0265 ± 0.016,-0.0095 ± 0.016,-0.098 ± 0.0099,0.003 ± 0.011
BT:sIL-2,0.0075 ± 0.016,-0.093 ± 0.0099,-0.0525 ± 0.015,-0.124 ± 0.028,0.0075 ± 0.039,0.0105 ± 0.011,0 ± 0.05,0.061 ± 0.069,0.0465 ± 0.026,-0.442 ± 0.033,-0.451 ± 0.12,-0.458 ± 0.039,-0.456 ± 0.032,0.0085 ± 0.064,0.0625 ± 0.11,0.0265 ± 0.071,0.0065 ± 0.063,0.008 ± 0.027,0.0055 ± 0.04,0.03 ± 0.033
BT:sIL-6,0.0165 ± 0.032,-0.0915 ± 0.0035,-0.0905 ± 0.021,-0.151 ± 0.014,0.0215 ± 0.016,0.0145 ± 0.0092,-0.0085 ± 0.07,0.0025 ± 0.053,0.038 ± 0.013,-0.2605 ± 0.0021,-0.281 ± 0.07,-0.3065 ± 0.0021,-0.33 ± 0.061,0.035 ± 0.02,0.0455 ± 0.036,0.009 ± 0.069,-0.029 ± 0.045,-0.078 ± 0.016,-0.216 ± 0.054,0.0325 ± 0.019
BT:sIL-17A,0.0515 ± 0.14,0.001 ± 0.02,0.036 ± 0.037,-0.174 ± 0.096,-0.05 ± 0.0085,0.0015 ± 0.022,-0.024 ± 0.11,0.121 ± 0.12,0.0575 ± 0.17,-0.776 ± 0.019,-0.55 ± 0.03,-0.652 ± 0.057,-0.717 ± 0.042,-0.007 ± 0.21,-0.043 ± 0.11,-0.037 ± 0.18,-0.0535 ± 0.14,-0.25 ± 0.073,-0.393 ± 0.085,-0.06 ± 0.25
BT:sIL-17F,0.018 ± 0.027,0.111 ± 0.016,0.116 ± 0.012,0.0455 ± 0.012,-0.0305 ± 0.0064,0.002 ± 0.15,0.044 ± 0.064,0.0125 ± 0.16,-0.0705 ± 0.046,-0.259 ± 0.0099,-0.251 ± 0.058,-0.262 ± 0.012,-0.239 ± 0.047,0.0025 ± 0.03,0.075 ± 0.055,0.0675 ± 0.14,-0.0015 ± 0.03,-0.158 ± 0.12,-0.208 ± 0.0092,-0.0225 ± 0.056
BT:sTNF-alpha,-0.0035 ± 0.057,-0.035 ± 0.037,0.013 ± 0.034,0.0045 ± 0.093,-0.002 ± 0.038,0.0115 ± 0.073,-0.0445 ± 0.052,-0.028 ± 0.021,0.0375 ± 0.079,-0.575 ± 0.0078,-0.553 ± 0.0099,-0.525 ± 0.13,-0.566 ± 0.13,0.126 ± 0.061,0.0895 ± 0.077,0.143 ± 0.14,-0.057 ± 0.045,-0.0705 ± 0.036,-0.097 ± 0.18,0.06 ± 0.02
LPS:CCL2/MCP-1,-0.0325 ± 0.023,0.0325 ± 0.033,-0.017 ± 0.023,-0.001 ± 0.0014,-0.0035 ± 0.033,0.0165 ± 0.016,-0.0105 ± 0.022,-0.014 ± 0.0042,-0.002 ± 0.0099,0.023 ± 0.011,-0.0045 ± 0.012,-0.013 ± 0.0071,-0.0105 ± 0.088,-0.0125 ± 0.021,-0.0095 ± 0.00071,0.019 ± 0.0057,-0.004 ± 0.018,-0.0115 ± 0.018,-0.0135 ± 0.036,0.0015 ± 0.0078
LPS:CD40,-0.015 ± 0.024,-0.014 ± 0.018,-0.0145 ± 0.016,-0.045 ± 0.03,-0.0305 ± 0.019,-0.039 ± 0.011,0.04 ± 0.1,0.0475 ± 0.015,0.007 ± 0.055,0.0175 ± 0.054,-0.035 ± 0.03,-0.012 ± 0.037,-0.0635 ± 0.019,-0.008 ± 0.016,-0.041 ± 0.014,-0.032,-0.031 ± 0.0057,-0.0375 ± 0.032,-0.0555 ± 0.049,-0.019 ± 0.05
LPS:CD62E/E-Selectin,-0.024 ± 0.0057,-0.0115 ± 0.0078,-0.005 ± 0.016,-0.004 ± 0.0085,-0.009 ± 0.013,-0.01 ± 0.0085,-0.002 ± 0.0099,-0.0115 ± 0.005,-0.0135 ± 0.0035,0 ± 0.0014,-0.015 ± 0.0014,-0.0105 ± 0.00071,-0.0115 ± 0.005,0.002 ± 0.023,-0.0195 ± 0.012,-0.0045 ± 0.03,-0.0495 ± 0.013,-0.0295 ± 0.022,-0.044 ± 0.024,-0.014 ± 0.016
LPS:CD69,0.013 ± 0.0014,0.03 ± 0.0028,0 ± 0.028,-0.0315 ± 0.04,-0.0275 ± 0.022,-0.038 ± 0.013,-0.021 ± 0.0014,-0.0255 ± 0.0078,-0.007,0.016 ± 0.1,-0.009 ± 0.052,-0.042 ± 0.038,-0.0335 ± 0.039,-0.0295 ± 0.025,-0.0135 ± 0.015,-0.0105 ± 0.025,0.014 ± 0.0099,-0.006 ± 0.045,-0.0125 ± 0.028,-0.0585 ± 0.05
LPS:CD106/VCAM-1,0.001 ± 0.016,-0.0285 ± 0.016,-0.016 ± 0.0071,-0.0195 ± 0.011,-0.017 ± 0.014,-0.002 ± 0.0057,-0.009 ± 0.0099,-0.0005 ± 0.0021,-0.006 ± 0.0057,0.0095 ± 0.005,-0.0285 ± 0.026,-0.0135 ± 0.0035,-0.0375 ± 0.023,-0.017 ± 0.014,-0.0145 ± 0.005,0.0075 ± 0.00071,-0.008 ± 0.0057,-0.011 ± 0.023,-0.0275 ± 0.018,-0.0095 ± 0.043
LPS:CD141/Thrombomodulin,-0.015 ± 0.0028,-0.013 ± 0.031,-0.0025 ± 0.0092,-0.036 ± 0.028,-0.018 ± 0.048,-0.018 ± 0.017,-0.019 ± 0.0028,-0.002 ± 0.0042,0.0005 ± 0.0021,0.05 ± 0.031,0.035 ± 0.028,0.0125 ± 0.039,0.032 ± 0.027,-0.037 ± 0.034,0.0025 ± 0.03,-0.005 ± 0.02,-0.008 ± 0.027,-0.032 ± 0.0042,0.028 ± 0.034,0.018 ± 0.016
LPS:CD142/Tissue Factor,-0.091 ± 0.021,0.0885 ± 0.064,0.0845 ± 0.028,0.075 ± 0.045,0.01 ± 0.016,-0.001 ± 0.02,0.0115 ± 0.013,-0.011 ± 0.021,0.022 ± 0.0085,0.0495 ± 0.026,0.03 ± 0.023,0.014 ± 0.03,0.038 ± 0.028,-0.0015 ± 0.0064,-0.025 ± 0.047,0.0235 ± 0.016,0.011 ± 0.1,0.0075 ± 0.033,-0.0095 ± 0.054,-0.023 ± 0.014

# Source: the supplement of paper PMC10331698
